Among the data in PubChem BioAssay (NCI) are TGI values, retold here.

Molecules are shown by their SMILES.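 Tested at 5 concentrations; 48 h exposure; 96-well plates; endpoints linearly interpolated, else capped at highest concentration. TGI denotes the concentration required for complete inhibition of growth.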 Where a SMILES comes first, the peptide text is derived from it. The star is where a group is joined. Cbz = O=C(OCc1ccccc1)*; NHNH2 = NN* Where only a bound is given, the exact number is not on record here.

Some test systems named below: UO-31 renal; SK-OV-3 ovarian; KM12 colon; U251 CNS; HS 578T breast; SK-MEL-28 melanoma; DU-145 prostate; SK-MEL-5 melanoma; IGROV1 ovarian; HOP-92 NSCLC.
Assay in all cases: NCI tumour cell line growth inhibition, 48 h

For the molecule `CC1(C)OC[C@@H](O)[C@H](Br)CO1`, the TGI in the assay on UO-31 renal, in the assay with SK-OV-3 ovarian, in the assay on KM12 colon, in the assay with U251 CNS, in the assay with HS 578T breast and in the assay with SK-MEL-28 melanoma was above 100 µM throughout. The same molecule yielded a TGI in the assay with DU-145 prostate above 100 µM.
On to `CC1C2=C(CCCC2=O)N(c2ccc(Cl)cc2)C2=C1C(=O)CCC2`, for which the TGI with UO-31 renal, in the assay on SK-MEL-5 melanoma, in the assay on SK-OV-3 ovarian, with KM12 colon, in the assay on U251 CNS and with IGROV1 ovarian was above 100 µM throughout. Moreover, the TGI in the assay with HS 578T breast, with HOP-92 NSCLC and in the assay with SK-MEL-28 melanoma was above 100 µM each time.
As to `CCC(O)c1ccc(N=Cc2ccccc2O)cc1` (stereo not given), the TGI in the assay on UO-31 renal, in the assay with SK-MEL-5 melanoma, with SK-OV-3 ovarian, in the assay with KM12 colon, with U251 CNS and in the assay with IGROV1 ovarian was above 100 µM in each case. Moreover, the TGI in the assay with HOP-92 NSCLC, in the assay with SK-MEL-28 melanoma and in the assay with DU-145 prostate was above 100 µM throughout.
Turning to `CC(=O)C(=[N+]=[N-])C(=O)N(C)CCC#N`, the TGI in the assay on UO-31 renal, with SK-OV-3 ovarian, in the assay on KM12 colon, in the assay with U251 CNS, in the assay with IGROV1 ovarian and in the assay on HOP-92 NSCLC was above 10 µM each time. Besides, the TGI in the assay on SK-MEL-28 melanoma and in the assay on DU-145 prostate was above 10 µM in each case.
For `O=c1[nH]c(=O)n(C2CC(O)C(CO)O2)cc1C#Cc1ccc(F)cc1` (stereo not given), the TGI in the assay on UO-31 renal, in the assay with SK-MEL-5 melanoma, in the assay with SK-OV-3 ovarian, in the assay on KM12 colon, with U251 CNS and with IGROV1 ovarian was above 100 µM in each case. Moreover, in the assay on SK-MEL-28 melanoma, the TGI was above 100 µM.
As to `COc1ccc2[nH]c3c(C)cc([N+](=O)[O-])c(C)c3c2c1`, the TGI in the assay with UO-31 renal is 71 µM; in the assay with SK-MEL-5 melanoma, 88.4 µM; in the assay on SK-OV-3 ovarian, 78.3 µM; in the assay on KM12 colon it was 45.4 µM; with U251 CNS it was 97.8 µM; with IGROV1 ovarian it was above 100 µM. The TGI in the assay on HOP-92 NSCLC stood at 80.6 µM; in the assay with SK-MEL-28 melanoma it was 92.2 µM.
For the molecule `CCOC(=O)c1cc(C2CCN(c3ccccc3)C2=O)c(C(=O)/C=C(/C)N)[nH]1` (stereo not given), the TGI in the assay with UO-31 renal was above 100 µM; with SK-MEL-5 melanoma, above 100 µM; in the assay on SK-OV-3 ovarian, 50.7 µM; with KM12 colon it was above 100 µM; in the assay on U251 CNS, 36.4 µM; in the assay on IGROV1 ovarian, above 100 µM. Moreover, the figures for the TGI with HS 578T breast, in the assay with SK-MEL-28 melanoma and with DU-145 prostate were 46.3 µM, above 100 µM and above 100 µM, respectively.
As to `OC12c3ccccc3C3CCC4(OCCO4)C3C1c1ccccc12` (stereo not given), the TGI in the assay with UO-31 renal, in the assay on SK-MEL-5 melanoma, in the assay with SK-OV-3 ovarian, with KM12 colon, in the assay on U251 CNS and in the assay on IGROV1 ovarian was above 100 µM each time. Moreover, the TGI in the assay on SK-MEL-28 melanoma is above 100 µM.
Regarding `CC(CN(C)C)C(=O)c1ccccc1` (stereo not given), the TGI in the assay with UO-31 renal is above 31.6 µM; with SK-MEL-5 melanoma, above 100 µM; in the assay with KM12 colon, above 51.5 µM; in the assay with U251 CNS, above 100 µM; in the assay on IGROV1 ovarian, above 100 µM; with HOP-92 NSCLC, 6.87 µM. Besides, in the assay on SK-MEL-28 melanoma, the TGI was above 56.6 µM.
Take `CCOC(=O)CCC(NC(=O)OCc1ccccc1)C(=O)NC(CCC(=O)OCC)C(=O)NN` (stereo not given) (Cbz-Glu(OEt)-Glu(OEt)-NHNH2; configuration not given here): the TGI with UO-31 renal, in the assay on SK-MEL-5 melanoma, in the assay with KM12 colon, with U251 CNS, in the assay on IGROV1 ovarian and in the assay with HS 578T breast was above 100 µM in each case. The TGI with HOP-92 NSCLC and in the assay with SK-MEL-28 melanoma was above 100 µM throughout.
Take `N#C/C(N)=C(\C#N)N=CNc1ccc(N)cc1`: the TGI with UO-31 renal, with SK-MEL-5 melanoma, in the assay with SK-OV-3 ovarian, in the assay with KM12 colon, in the assay on U251 CNS and in the assay with IGROV1 ovarian was above 100 µM each time. In addition, the TGI in the assay with HS 578T breast, in the assay on SK-MEL-28 melanoma and in the assay on DU-145 prostate was above 100 µM throughout.
As for `NC(=Nc1cccc(Cl)c1)c1ccccc1N`, the TGI with UO-31 renal, in the assay with SK-MEL-5 melanoma, in the assay with SK-OV-3 ovarian, in the assay with KM12 colon, in the assay on U251 CNS and in the assay on IGROV1 ovarian was above 100 µM throughout. The TGI with HS 578T breast, in the assay on SK-MEL-28 melanoma and with DU-145 prostate was above 100 µM throughout.
Take `O=C(Nc1nnc(-c2c(Cl)c(Cl)c(Cl)c(Cl)c2-c2nc3cc(C(=O)c4ccccc4)ccc3[nH]2)o1)c1ccc(Cl)cc1`: the TGI in the assay on UO-31 renal is above 100 µM; in the assay with SK-MEL-5 melanoma, 39.9 µM; in the assay with SK-OV-3 ovarian, above 100 µM; in the assay with KM12 colon it was above 100 µM; in the assay with U251 CNS, above 100 µM; in the assay on IGROV1 ovarian, above 100 µM. The TGI in the assay on HOP-92 NSCLC, in the assay with SK-MEL-28 melanoma and in the assay on DU-145 prostate was above 100 µM each time.
Consider `COc1ccc(C(=O)N/N=C/c2c(C)n(C)n(-c3ccccc3)c2=O)cc1`, for which the TGI in the assay on UO-31 renal, in the assay on SK-OV-3 ovarian, in the assay with KM12 colon, in the assay on U251 CNS, in the assay on IGROV1 ovarian and in the assay on HOP-92 NSCLC was above 100 µM in each case. Further, the TGI in the assay on SK-MEL-28 melanoma is above 100 µM.
For `COc1nc2c(c(=O)n1C)N=C(c1ccc(Cl)cc1)CC(c1ccccc1)N2` (stereo not given), the TGI with UO-31 renal is above 100 µM; in the assay on SK-MEL-5 melanoma it was 38.2 µM; with SK-OV-3 ovarian, above 100 µM; in the assay on KM12 colon, 33.8 µM; with U251 CNS, above 100 µM; in the assay on IGROV1 ovarian it was 51.5 µM. Also, the TGI with HOP-92 NSCLC, in the assay with SK-MEL-28 melanoma and in the assay with DU-145 prostate was above 100 µM in each case.
As to `COC(=O)[C@@H]1CC(C(CN)c2cn(C(=O)OC(C)(C)C)c3ccccc23)C(=O)N1C(=O)OC(C)(C)C` (stereo not given in full), the TGI in the assay with UO-31 renal was above 100 µM; in the assay on SK-MEL-5 melanoma it was 31.6 µM; with KM12 colon, above 100 µM; with U251 CNS, above 100 µM; in the assay on IGROV1 ovarian, 58.1 µM; with HS 578T breast, above 100 µM. The TGI is 31.4 µM with SK-MEL-28 melanoma and above 100 µM with DU-145 prostate.
